Reference: PubChem BioAssay AID588835 (The Scripps Research Institute Molecular Screening Center, 2011)
Activity calls are given as the source filed them. No rule for the calls is given here.

What was measured:
[1] = molecular target: Monoacylglycerol lipase ABHD6 (Mus musculus) (UniProt Q8R2Y0); test: in situ PREP and ABHD6 off-target inhibition, dose response, selectivity assay for PME-1 inhibitor project, cell-based, fluorescence, gel-based ABPP (AID 588835); details: in situ gel-based competitive ABPP
Chain of Monoacylglycerol lipase ABHD6 (Mus musculus) (Q8R2Y0 whole entry, looked up): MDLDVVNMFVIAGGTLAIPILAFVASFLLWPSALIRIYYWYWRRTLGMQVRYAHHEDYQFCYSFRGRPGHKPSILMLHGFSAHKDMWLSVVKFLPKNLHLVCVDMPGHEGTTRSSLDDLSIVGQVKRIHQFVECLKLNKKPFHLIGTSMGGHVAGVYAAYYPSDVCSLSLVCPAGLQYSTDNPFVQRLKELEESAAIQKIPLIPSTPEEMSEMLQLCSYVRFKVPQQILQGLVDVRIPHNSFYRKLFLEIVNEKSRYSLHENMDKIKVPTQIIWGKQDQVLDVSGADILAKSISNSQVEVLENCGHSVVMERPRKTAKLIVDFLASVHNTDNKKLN

[2] = molecular target: Prolyl endopeptidase (Mus musculus) (UniProt Q9QUR6); test: as above; details: in situ gel-based competitive ABPP, PREP, IC50, second panel column
Chain of Prolyl endopeptidase (Mus musculus) (Q9QUR6 whole entry, looked up): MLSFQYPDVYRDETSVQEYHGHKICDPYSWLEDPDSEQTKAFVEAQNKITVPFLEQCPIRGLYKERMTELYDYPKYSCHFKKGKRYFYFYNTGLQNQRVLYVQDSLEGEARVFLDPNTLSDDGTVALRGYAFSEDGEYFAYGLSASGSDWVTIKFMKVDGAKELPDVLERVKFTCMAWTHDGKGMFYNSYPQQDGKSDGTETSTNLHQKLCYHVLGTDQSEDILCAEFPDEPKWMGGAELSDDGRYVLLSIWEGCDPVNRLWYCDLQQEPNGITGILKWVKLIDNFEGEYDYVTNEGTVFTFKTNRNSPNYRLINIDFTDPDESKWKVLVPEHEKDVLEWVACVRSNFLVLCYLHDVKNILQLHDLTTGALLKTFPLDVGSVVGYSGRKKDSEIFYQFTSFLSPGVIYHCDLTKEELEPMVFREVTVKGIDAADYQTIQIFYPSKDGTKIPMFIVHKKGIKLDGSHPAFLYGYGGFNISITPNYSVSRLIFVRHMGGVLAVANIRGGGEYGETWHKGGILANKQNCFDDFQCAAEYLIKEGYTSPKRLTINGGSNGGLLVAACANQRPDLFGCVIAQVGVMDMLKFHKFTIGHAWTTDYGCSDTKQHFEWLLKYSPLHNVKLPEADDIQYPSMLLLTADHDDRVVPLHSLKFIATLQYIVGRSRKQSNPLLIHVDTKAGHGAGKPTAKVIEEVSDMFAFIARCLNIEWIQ

- IC50 [1]: inactive
- IC50 [2]: 2.34 µM
SMILES: CC[C@@]1(c2ccc(C)cc2)C(=O)N(C(=O)OC(C)C)N1C(=O)OC(C)C
